The subject of experiment [1] is myeloma cell line LP-1. The experiment is described as follows: tetrazolium reduction (Promega MTS) assay with isobologram analysis, LP-1. It counts as cell-based, human. The procedure:
(§1) We investigated the cytotoxic effect of the HMG-CoA reductase inhibitor fluvastatin on the human multiple myeloma cell lines LP-1, OPM-2, U266, NCI-H929 and RPMI-8226 in vitro using a tetrazolium reduction assay. After 3 days culture in the presence of 0 to 50 μM fluvastatin, the Promega MTS assay reagent was used to determine the level of inhibition of cell proliferation and/or cell death.
Using the same assay we investigated whether the activity of fluvastatin against multiple myeloma in vitro could be enhanced by the addition of the bisphosphonate Zometa® (zoledronic acid). Using 80% cell inhibition as an end point, isobolograms were constructed to visualize the interaction between fluvastatin and Zometa®.

Experiment [2] deals with OPM-2. Briefly: tetrazolium reduction (Promega MTS) assay, OPM-2. The format is cell-based, human. The following applies: 3 days culture. As for the experimental part: as §1
Experiment [3] has as its system U266. The experiment is described as follows: tetrazolium reduction (Promega MTS) assay, U266. It counts as cell-based, human. Particulars: 3 days culture. As for the experimental part:
as §1

Experiment [4] has as its system human multiple myeloma cell lines LP-1, OPM-2, U266, NCI-H929 and RPMI-8226. Briefly: tetrazolium reduction (Promega MTS) assay of cell proliferation and/or cell death, myeloma cell line panel. It counts as cell-based. Particulars: 3 days culture, p<0.05 by paired Student's t-test. The procedure:
as §1
Using the same assay we investigated whether the activity of fluvastatin against multiple myeloma in vitro could be enhanced by the addition of the bisphosphonate Zometa® (zoledronic acid). Using 80% cell inhibition as an end point, isobolograms were constructed to visualize the interaction between fluvastatin and Zometa®. […] To illustrate this point, >50 μM fluvastatin or […] Zometa® alone was required to induce 80% cell death in the myeloma cell line LP-1 but the combination of 25 μM fluvastatin and 0.21 μM Zometa® had the same effect.

Structures are written as SMILES.

We go through 2 compounds from patent publication US20060234985A1, “Combination therapy comprising a bisphosphonate and a hmg-coa reductase inhibitor” (priority 2002, published 2006).

One may read the inhibition as the percentage by which the read-out fell short of the control. A high value points to strong suppression.

`CC(C)n1c(/C=C/C(O)CC(O)CC(=O)O)c(-c2ccc(F)cc2)c2ccccc21` (stereo not drawn) [fluvastatin]: the “concentration required to induce 80% cell death” value in experiment [1] (fluvastatin alone) is > 50 µM. In addition, the “inhibition at 50 μM” value was > 90% in experiment [2] and 45% in experiment [3]. The inhibition of proliferation entry in experiment [4] (25 μM and 50 μM, all cell lines) is given as “significantly inhibited proliferation”. In experiment [4] (all cell lines except RPMI-8226), the “fluvastatin concentration as low as which significantly inhibited proliferation” value was 2.5 µM.

Take `O=P(O)(O)C(O)(Cn1ccnc1)P(=O)(O)O` [Zometa®, 2-(imidazol-1yl)-1-hydroxyethane-1,1-diphosphonic acid]: the concentration required to induce 80% cell death in experiment [1] (Zometa alone) was > 100 µM.
